# Tests used:
# [1] = tested on: common mosquito (Culex pipens pallens) females; assay: Mortality of common mosquito females, oil solution sprayed in a chamber (Test Example 2); format: in vivo; conditions: 0.7 ml of 0.00625% oil solution sprayed in 70 cm cubic chamber; ten females; recovered after ten minutes; dead counted after 24 hours; 2 repetition
# Procedure: Each 0.00625 parts of the present compounds (1) to (3) produced in the above production Examples was dissolved in 10 parts of dichloromethane, and the solution was mixed with 89.99375 parts of deodorized kerosene to prepare a 0.00625% oil solution.
# Ten common mosquito (Culex pipens pallens) females were released in a cubic chamber having each side of 70 cm, and 0.7 ml of the 0.00625% oil solution of the present compound prepared above was sprayed into the chamber through a small window on a side of the chamber using a spraying gun at a pressure of 8.8×10^4 Pa. After ten minutes, common mosquito females were recovered in a clean cup (bottom diameter 8.2 cm) with a cotton wool containing a 0.5% aqueous sugar, and allowed to stand until the next day. After 24 hours, the number of dead mosquitoes was counted, and a mortality was calculated (2 repetition).
# In addition, the same as above test was performed using, in place of present compounds (1) to (3), 4-methoxymethyl-2,3,5,6-tetrafluorobenzyl (1R)-trans-3-(2-cyano-1-propenyl)-2,2-dimethylcyclopropanecarboxylate (ratio of isomers regarding double bond: Z/E=about 2/1; compound described in U.S. Pat. No. 6,908,945B2; hereinafter refereed to as Comparative Compound (4)) as a control.
# Adult houseflies = assay: Knock-down of adult houseflies, oil solution sprayed in a chamber (Test Example 1); format: in vivo, housefly; conditions: 0.7 ml of 0.025% oil solution sprayed in 70 cm cubic chamber; 10 adult houseflies; counted two minutes after spraying; 2 repetitions
# Procedure: Each 0.025 part of the present compounds (1) to (3) produced in the above Production Examples was dissolved in 10 parts of dichloromethane, and the solution was mixed with 89.975 parts of deodorized kerosene to prepare a 0.025% oil solution.
# Adult houseflies (5 males and 5 females, total 10) were released in a cubic chamber having each side of 70 cm, and 0.7 ml of the 0.025% oil solution of the present compound prepared above was sprayed into the chamber through a small window on a side of the chamber using a spraying gun at a pressure of 8.8×10^4 Pa. Two minutes after spraying, the number of knocked-down houseflies was counted (2 repetitions).
# In addition, the same as above test was performed by using, in place of the present compounds (1) to (3), 4-methyl-2,3,5,6-tetrafluorobenzyl (1R)-trans-3-(2-methyl-1-propenyl)-2,2-dimethylcyclopropanecarboxylate represented by the formula: […]
Structure (SMILES),Mortality (%) [1] [%],Number of knock-down houseflies (Adult houseflies)
"CC(C#N)=C[C@@H]1[C@@H](C(=O)OCc2c(F)c(F)c(C)c(F)c2F)C1(C)C (racemic) [Present compound (1), 4-methyl-2,3,5,6-tetrafluorobenzyl (1R)-trans-3-(2-cyano-1-propenyl)-2,2-dimethylcyclopropanecarboxylate]",95,10
"COc1c(F)c(F)c(COC(=O)[C@@H]2[C@@H](C=C(C)C#N)C2(C)C)c(F)c1F (racemic) [Present compound (2), 4-methoxy-2,3,5,6-tetrafluorobenzyl (1R) trans-3-(2-cyano-1-propenyl)-2,2-dimethylcyclopropanecarboxylate]",100,10
"C=CCc1c(F)c(F)c(COC(=O)[C@@H]2[C@@H](C=C(C)C)C2(C)C)c(F)c1F [Comparative compound (3), 4-allyl-2,3,5,6-tetrafluorobenzyl (1R)-trans-3-(2-methyl-1-propenyl)-2,2-dimethylcyclopropanecarboxylate, reference compound]",,0
"COc1c(F)c(F)c(COC(=O)[C@@H]2[C@@H](C=C(C)C)C2(C)C)c(F)c1F [Comparative compound (2), 4-methoxy-2,3,5,6-tetrafluorobenzyl (1R)-trans-3-(2-methyl-1-propenyl)-2,2-dimethylcyclopropanecarboxylate, reference compound]",,0
"COCc1c(F)c(F)c(COC(=O)[C@@H]2[C@@H](C=C(C)C#N)C2(C)C)c(F)c1F [Comparative compound (4), 4-methoxymethyl-2,3,5,6-tetrafluorobenzyl (1R)-trans-3-(2-cyano-1-propenyl)-2,2-dimethylcyclopropanecarboxylate, reference compound]",16,
"CC(C)=C[C@@H]1[C@@H](C(=O)OCc2c(F)c(F)c(C)c(F)c2F)C1(C)C [Comparative compound (1), 4-methyl-2,3,5,6-tetrafluorobenzyl (1R)-trans-3-(2-methyl-1-propenyl)-2,2-dimethylcyclopropanecarboxylate, reference compound]",,0
"C=CCc1c(F)c(F)c(COC(=O)[C@@H]2[C@@H](C=C(C)C#N)C2(C)C)c(F)c1F (racemic) [Present compound (3), 4-allyl-2,3,5,6-tetrafluorobenzyl (1R)-trans-3-(2-cyano-1-propenyl)-2,2-dimethylcyclopropanecarboxylate]",70,9

# — patent publication US8367724B2, “Ester compound and use thereof” (Sumitomo Chemical Company, Limited, priority 2007, dated 2013)
